From patent US20040242694A1, “Remedial agent for cardiac failure” (priority 2001, published 2004)

How the values were obtained:
[1] = system: Dahl's salt-sensitive rat; test: P-V curve of removed hearts under perfuse by Langendorff's method; assay type: ex vivo; settings: compared with the control group; Langendorff perfusion
Procedure: In the above model of cardiac failure using Dahl's salt-sensitive rat, internal pressure and volume of left ventricle of hearts removed from 11, 15, and 17 weeks rats were measured under perfuse by Langendorff's method.

mice = test: Toxicity, oral administration to mice; assay type: in vivo
Procedure: It was considered that the toxicities of the compounds in the present invention could be very low and safe to use as a medicine. For example, the lowest lethal dose in oral administration of compound (II) to mice was 2000 mg/kg.

[2] = system: animal test mode of ventricular failure; settings: J Pharmacol Exp Ther 291(2) 799-811 (1999); Circ Res 85(4) 364-376 (1999); cited from earlier work

| Compound | P-V curve (internal pressure and volume of left ventricle) [1] | lowest lethal dose (mice) [mg/kg] | effect on animal test model of ventricular failure [2] |
| --- | --- | --- | --- |
| CCOCOC[C@H](C[C@H](C)C(=O)NO)NC(=O)c1ccc(Oc2ccccc2)cc1 [compound (II), N-hydroxy-5-ethoxymethyloxy-2(S)-methyl-4(S)-(4-phenoxybenzoyl)aminopentanamide] | shifts to the left side | 2000 | – |
| CC(C)[C@H](NS(=O)(=O)c1ccc(-c2ccc(Br)cc2)cc1)C(=O)O [PD166793] | – | – | effective |
